In patent EP4722213A1, “NITROGEN-CONTAINING FUNCTIONAL GROUP-SUBSTITUTED PYRIDAZINOPYRIDONE DERIVATIVE AND USE THEREOF” (Sichuan Huiyu Pharmaceutical Co., Ltd., priority 2023, dated 2024):
Structures can show the parent of a compound that is named as a salt.

Biological target: T1, SOS1 (Homo sapiens, UniProt Q07889)
T1 sequence (Q07889 1-1333): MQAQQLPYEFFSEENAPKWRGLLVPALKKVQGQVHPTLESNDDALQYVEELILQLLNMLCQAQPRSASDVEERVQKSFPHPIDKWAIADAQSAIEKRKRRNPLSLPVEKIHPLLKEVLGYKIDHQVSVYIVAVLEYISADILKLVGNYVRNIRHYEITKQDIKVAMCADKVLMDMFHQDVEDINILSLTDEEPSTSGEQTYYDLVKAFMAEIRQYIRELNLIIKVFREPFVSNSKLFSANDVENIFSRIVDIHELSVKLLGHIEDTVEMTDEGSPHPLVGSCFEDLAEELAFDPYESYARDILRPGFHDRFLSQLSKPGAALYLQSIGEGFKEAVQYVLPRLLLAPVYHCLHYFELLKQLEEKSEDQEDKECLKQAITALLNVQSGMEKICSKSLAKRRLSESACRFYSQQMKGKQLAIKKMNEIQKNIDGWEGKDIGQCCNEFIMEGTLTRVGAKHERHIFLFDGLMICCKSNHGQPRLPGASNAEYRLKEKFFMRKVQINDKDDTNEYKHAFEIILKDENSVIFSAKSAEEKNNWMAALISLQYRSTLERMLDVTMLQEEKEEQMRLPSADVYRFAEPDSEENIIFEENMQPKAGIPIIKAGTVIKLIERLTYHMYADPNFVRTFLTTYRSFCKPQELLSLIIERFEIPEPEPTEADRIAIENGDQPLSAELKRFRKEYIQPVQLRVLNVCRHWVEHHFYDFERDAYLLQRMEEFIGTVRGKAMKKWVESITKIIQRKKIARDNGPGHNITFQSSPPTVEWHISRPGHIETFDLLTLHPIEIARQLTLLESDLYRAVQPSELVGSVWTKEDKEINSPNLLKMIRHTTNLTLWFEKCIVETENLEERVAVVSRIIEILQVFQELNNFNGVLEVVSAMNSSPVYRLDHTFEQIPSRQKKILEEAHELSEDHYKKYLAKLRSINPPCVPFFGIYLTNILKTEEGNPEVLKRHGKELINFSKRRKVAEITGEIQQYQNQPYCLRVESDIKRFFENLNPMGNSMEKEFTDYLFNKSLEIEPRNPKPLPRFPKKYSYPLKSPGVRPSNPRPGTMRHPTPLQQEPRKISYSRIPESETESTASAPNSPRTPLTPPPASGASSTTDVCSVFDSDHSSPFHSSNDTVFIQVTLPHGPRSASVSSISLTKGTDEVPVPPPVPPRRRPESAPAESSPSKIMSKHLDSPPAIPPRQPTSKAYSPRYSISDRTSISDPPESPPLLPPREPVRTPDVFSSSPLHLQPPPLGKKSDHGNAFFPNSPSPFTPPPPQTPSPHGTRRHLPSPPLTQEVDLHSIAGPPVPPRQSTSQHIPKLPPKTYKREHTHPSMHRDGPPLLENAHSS
Assay: biochemical

Row | Compound | IC50 [nM]
1 | Cc1c([C@@H](C)Nc2nnc(N3CCN(C(C)(C)C)CC3)c3cc(=O)n(C4(C)CC4)cc23)cccc1C(F)(F)F [Example 95, (R)-1-(4-(tert-butyl)piperazin-1-yl)-4-((1-(2-methyl-3-(trifluoromethyl)phenyl)ethyl)amino)-6-(1-methylcyclopropyl) pyrido[3,4-d]pyridazin-7(6H)-one] | 6.8
2 | Cc1c([C@@H](C)Nc2nnc(N3CCN(C4CCCC4)CC3)c3cc(=O)n(C4(C)CC4)cc23)cccc1C(F)(F)F [Example 96, (R)-1-(4-cyclopentylpiperazin-1-yl)-4-((1-(2-methyl-3-(trifluoromethyl)phenyl)ethyl)amino)-6-(1-methylcyclopropyl) pyrido[3,4-d]pyridazin-7(6H)-one] | 7.4
3 | Cc1c(C#N)cccc1[C@@H](C)Nc1nnc(N2CCN(C3CC3)CC2)c2cc(=O)n(C3CC3)cc12 [Example 99, (R)-3-(1-((6-cyclopropyl-1-(4-cyclopropylpiperazin-1-yl)-7-oxo-6,7-dihydropyrido[3,4-d]pyridazin-4-yl)amino)ethyl)-2-methylbenzonitrile] | 11.3
4 | Cc1c(C#N)cccc1[C@@H](C)Nc1nnc(N2CCN(C3CCC3)CC2)c2cc(=O)n(C3CC3)cc12 [Example 100, (R)-3-(1-((1-(4-cyclobutylpiperazin-1-yl)-6-cyclopropyl-7-oxo-6,7-dihydropyrido[3,4-d]pyridazin-4-yl)amino)ethyl)-2-methylbenzonitrile] | 10.9
5 | Cc1c(C#N)cccc1[C@@H](C)Nc1nnc(N2CCN(C3CCCC3)CC2)c2cc(=O)n(C3CC3)cc12 [Example 101, (R)-3-(1-((1-(4-cyclopentylpiperazin-1-yl)-6-cyclopropyl-7-oxo-6,7-dihydropyrido[3,4-d]pyridazin-4-yl)amino)ethyl)-2-methylbenzonitrile] | 8.9
6 | Cc1c(C#N)cccc1[C@@H](C)Nc1nnc(N2CCN(CC3CC3)CC2)c2cc(=O)n(C3CC3)cc12 [Example 102, (R)-3-(1-((6-cyclopropyl-1-(4-(cyclopropylmethyl)piperazin-1-yl)-7-oxo-6,7-dihydropyrido[3,4-d]pyridazin-4-yl)amino)ethyl)-2-methylbenzonitrile] | 12.5
7 | C[C@@H](Nc1nnc(N2CCN(C3CC3)CC2)c2cc(=O)n(C3CC(F)(F)C3)cc12)c1cccc(C(F)F)c1F [Example 103, (R)-6-(3,3-difluorocyclobutyl)-4-((1-(3-(difluoromethyl)-2-fluorophenyl)ethyl)amino)-1-(4-cyclopropylpiperazin-1-yl)pyrido[3,4-d]pyridazin-7(6H)-one] | 5.9
8 | C[C@@H](Nc1nnc(N2CCN(C3CCCC3)CC2)c2cc(=O)n(C3CC(F)(F)C3)cc12)c1cccc(C(F)F)c1F [Example 106, (R)-6-(3,3-difluorocyclobutyl)-4-((1-(3-(difluoromethyl)-2-fluorophenyl)ethyl)amino)-1-(4-cyclopentylpiperazin-1-yl)pyrido[3,4-d]pyridazin-7(6H)-one] | 5.2
9 | C[C@@H](Nc1nnc(N2CCN(CC3CC3)CC2)c2cc(=O)n(C3CC(F)(F)C3)cc12)c1cccc(C(F)F)c1F [Example 107, (R)-6-(3,3-difluorocyclobutyl)-4-((1-(3-(difluoromethyl)-2-fluorophenyl)ethyl)amino)-1-(4-(cyclopropylmethyl)piperazin-1-yl)pyrido[3,4-d]pyridazin-7(6H)-one] | 4.2
10 | CC(C)n1cc2c(N[C@H](C)c3cccc(C(F)F)c3F)nnc(N3CCN(C)CC3)c2cc1=O [Example 114, (R)-4-((1-(3-(difluoromethyl)-2-fluorophenyl)ethyl)amino)-6-isopropyl-1-(4-methylpiperazin-1-yl)pyrido[3,4-d]pyridazin-7(6H)-one formate] | 6
11 | C[C@@H](Nc1nnc(NC2COC2)c2cc(=O)n(C3(C)CC3)cc12)c1cccc(C(F)F)c1F [Example 115, (R)-4-((1-(3-(difluoromethyl)-2-fluorophenyl)ethyl)amino)-6-(1-methylcyclopropyl)-1-(oxetan-3-ylamino)pyrido[3,4-d]pyridazin-7(6H)-one] | 4.1
12 | CCn1cc2c(N[C@H](C)c3cccc(C(F)F)c3F)nnc(N3CCN(C)CC3)c2cc1=O [Example 116, (R)-4-((1-(3-(difluoromethyl)-2-fluorophenyl)ethyl)amino)-6-ethyl-1-(4-methylpiperazin-1-yl)pyrido[3,4-d]pyridazin-7(6H)-one] | 6.6
13 | CCN1CCN(c2nnc(N[C@H](C)c3cccc(C(F)F)c3F)c3cn(CC)c(=O)cc23)CC1 [Example 117, (R)-4-((1-(3-(difluoromethyl)-2-fluorophenyl)ethyl)amino)-6-ethyl-1-(4-ethylpiperazin-1-yl)pyrido[3,4-d]pyridazin-7(6H)-one] | 8.2
14 | CCn1cc2c(N[C@H](C)c3cccc(C(F)F)c3F)nnc(N3CCN(C(C)C)CC3)c2cc1=O [Example 118, (R)-4-((1-(3-(difluoromethyl)-2-fluorophenyl)ethyl)amino)-6-ethyl-1-(4-isopropylpiperazin-1-yl)pyrido[3,4-d]pyridazin-7(6H)-one] | 8.4
15 | CCN(C)c1nnc(N[C@H](C)c2cccc(C(F)F)c2F)c2cn(C3(C)CC3)c(=O)cc12 [Example 122, (R)-4-((1-(3-(difluoromethyl)-2-fluorophenyl)ethyl)amino)-1-(ethyl(methyl)amino)-6-(1-methylcyclopropyl) pyrido[3,4-d]pyridazin-7(6H)-one] | 10.6
16 | C[C@@H](Nc1nnc(NC2CCN(C)CC2)c2cc(=O)n(C3(C)CC3)cc12)c1cccc(C(F)F)c1F [Example 123, (R)-4-((1-(3-(difluoromethyl)-2-fluorophenyl)ethyl)amino)-6-(1-methylcyclopropyl)-1-((1-methylpiperidin-4-yl)amino)pyrido[3,4-d]pyridazin-7(6H)-one formate] | 3.8
17 | C[C@@H](Nc1nnc(N(C)CCN(C)C)c2cc(=O)n(C3(C)CC3)cc12)c1cccc(C(F)F)c1F [Example 124, (R)-4-((1-(3-(difluoromethyl)-2-fluorophenyl)ethyl)amino)-1-((2-(dimethylamino)ethyl)(methyl)amino)-6-(1-methylcyclopropyl) pyrido[3,4-d]pyridazin-7(6H)-one formate] | 5.8
18 | C[C@@H](Nc1nnc(NC23CC(C2)C3)c2cc(=O)n(C3(C)CC3)cc12)c1cccc(C(F)F)c1F [Example 125, (R)-1-(bicyclo[1.1.1]pentan-1-ylamino)-4-((1-(3-(difluoromethyl)-2-fluorophenyl)ethyl)amino)-6-(1-methylcyclopropyl) pyrido[3,4-d]pyridazin-7(6H)-one] | 14.1
19 | C[C@@H](Nc1nnc(NC2CCN(C)C2)c2cc(=O)n(C3(C)CC3)cc12)c1cccc(C(F)F)c1F (stereo partly drawn) [Example 126, 4-(((R)-1-(3-(difluoromethyl)-2-fluorophenyl)ethyl)amino)-6-(1-methylcyclopropyl)-1-((1-methylpyrrolidin-3-yl)amino)pyrido[3,4 d]pyridazin-7(6H)-one] | 9.4
20 | C[C@@H](Nc1nnc(N2CCN(C)CC2)c2cc(=O)n(C3CCOC3)cc12)c1cccc(C(F)F)c1F (stereo partly drawn) [Example 127, 4-(((R)-1-(3-(difluoromethyl)-2-fluorophenyl)ethyl)amino)-1-(4-methylpiperazin-1-yl)-6-(tetrahydrofuran-3-yl)pyrido[3,4-d]pyridazin-7(6H)-one] | 6.7
21 | C[C@@H](Nc1nnc(N2CCC(CO)C2)c2cc(=O)n(C3(C)CC3)cc12)c1cccc(C(F)F)c1F (stereo partly drawn) [Example 128, 4-(((R)-1-(3-(difluoromethyl)-2-fluorophenyl)ethyl)amino)-1-(3-(hydroxymethyl)pyrrolidin-1-yl)-6-(1-methylcyclopropyl) pyrido[3,4-d]pyridazin-7(6H)-one] | 4.2
22 | C[C@@H](Nc1nnc(NC(C2CC2)C2CC2)c2cc(=O)n(C3(C)CC3)cc12)c1cccc(C(F)F)c1F [Example 129, (R)-1-((dicyclopropylmethyl)amino)-4-((1-(3-(difluoromethyl)-2-fluorophenyl)ethyl)amino)-6-(1-methylcyclopropyl) pyrido[3,4-d]pyridazin-7(6H)-one] | 6.1
